Measurements: patent US9193954B2, “Methods and compositions for mesenchymal stem cell proliferation” (priority 2011, dated 2015)

Experiments:
Assay type in all cases: cell-based, human
hMSCs = experiment: Media induced differentiation of BIO-treated hMSCs (histology and Cbfa1, Sox9, PPARγ expression)
Protocol: Dev Cell. […] After 24 hrs cell media was replaced and cells were allowed to proliferate over three weeks. After three weeks BIO-treated hMSCs were cultured for three weeks in standard differentiation-inducing media (FIG. 6a). For osteogenic differentiation hMSCs were grown in normal growth media with osteogenic supplements (100 nM dexamethasone, 10 mM β-glycerophosphate, 50 μM ascorbic acid-2-phosphate). […] Differentiated two-dimensional cell cultures were fixed in 24-well tissue culture plates for 48 hrs in 4% paraformaldehyde and the monolayers were stained for mineralization (von Kossa, osteogenic), or the presence of lipid droplets (oil red o, adipogenic). Undifferentiated cultures were also stained as negative controls. Images were taken on a Motic AE20 inverted light microscope using a Canon EOS Rebel T2i with an eyepiece modification.
For chondrogenic differentiation, hMSCs were seeded at a density of 5,000 cell/cm^2 in T-75 tissue culture flasks, allowed to become adherent, and treated with BIO containing growth media for 24 hrs. After 24 hrs, cell media was replaced and cells were allowed to proliferate over three weeks (FIG. 6a). […] Pellet cultures were fixed for 48 hrs in 4% paraformaldehyde, cryosectioned, and stained for glycosaminoglycan production (toluidine blue, chondrogenic). Stained sections were imaged as described above.
(§1) RT-PCR was used to assess gene expression of hMSCs over time. At days: 0 (before BIO treatment), 1, 3, 6, 19, 29, 34, 37, and 41, samples were lysed and total RNA was isolated (ENZA Total RNA Kit, Omega). Reverse transcription was performed using the iScript cDNA Synthesis Kit (Bio-Rad). The reverse transcription reaction was incubated at 25° C. for 5 min, 42° C. for 30 min, and terminated at 85° C. for 5 min. PCR was performed using a CFX96 Real-Time PCR System (Bio-Rad), monitoring sybrgreen products (SsoFastEvaGreen Master Mix, Bio-Rad). Primers for β-actin, sex determining region Y-box 2 (Sox2), Nanog homobox (Nanog), and octamer-binding transcription factor 4 (Oct4), core-binding factor subunit alpha-1 (Cbfa1, also known as Runx2), sex determining region Y-box 9 (Sox9), and peroxisome proliferator-activated receptor gamma (PPARγ) were used (Table 2). The PCR parameters used were as follows: hold at 95° C. for 5 min, followed by 40 cycles of: 95° C. for 15 sec denaturation, 60° C. (β-actin, Sox2, Sox9), or 57° C. (Nanog, Oct4, Cbfa1), or 55° C. (PPARγ) for 60 sec annealing, and 72° C. for 20 sec extension. Threshold cycle (CT) analysis was used to quantify PCR products normalized to the cellular housekeeping gene β-actin. Relative gene quantification was performed using the Pfaffl Method, taking into account the variation between primer efficiencies.

PEG-encapsulated hMSCs [1] = experiment: PEG-encapsulated hMSC proliferation by total cellular DNA concentration (PicoGreen)
Protocol: (§2) FIG. 7 Schematic representation of 18 day PEG-encapsulated hMSC culture after 24 hr exposure to BIO-containing media (A). Cell DNA concentration was quantified on days 0, 1, 5, 12, and 18 and shown to undergo a dose-dependent, BIO-mediated increase in proliferation (B), as previously shown in two-dimensional cultures. Representative LIVE/DEAD confocal images of PEG-encapsulated BIO-treated hMSC cultures (C).
A 10 wt % solution of PEGDM was prepared in phosphate buffered saline (PBS) with 2.0 mM acryloyl-PEG-RGDS. The photoinitiator lithium phenyl-2,4,6-trimethylbenzoylphosphinate (LAP) was synthesized using conventional techniques and added at a final concentration of 0.05 wt %. Trypsinized hMSCs were centrifuged to form pellets and counted. The PEG macromer solution was added to the cell pellet, and volumes were adjusted to achieve a final cell concentration of 25 million cells/mL. Using a sterile 1 mL syringe with the tip removed as a mold, 40 μL of PEG/cell solution was added and exposed to long-wavelength 365 nm light (5 mW/cm^2 intensity) for 10 min at room temperature. […]
Encapsulated hMSC proliferation was assessed using total cellular DNA concentration, assuming constant DNA per cell, using a Quant-iT PicoGreen dsDNA Assay Kit (Invitrogen). […]

[2] = system: markers of undifferentiated stem cells, Sox2, Nanog, and Oct4; experiment: RT-PCR of Sox2, Nanog, Oct4 in PEG-encapsulated BIO-treated hMSCs; conditions: for Nanog gene expression relative to untreated controls / Oct4 gene expression relative to untreated controls / Sox2 gene expression relative to untreated controls: 5 μM BIO
Protocol: as §1
A 10 wt % solution of PEGDM was prepared in phosphate buffered saline (PBS) with 2.0 mM acryloyl-PEG-RGDS. The photoinitiator lithium phenyl-2,4,6-trimethylbenzoylphosphinate (LAP) was synthesized using conventional techniques and added at a final concentration of 0.05 wt %. Trypsinized hMSCs were centrifuged to form pellets and counted. The PEG macromer solution was added to the cell pellet, and volumes were adjusted to achieve a final cell concentration of 25 million cells/mL. Using a sterile 1 mL syringe with the tip removed as a mold, 40 μL of PEG/cell solution was added and exposed to long-wavelength 365 nm light (5 mW/cm^2 intensity) for 10 min at room temperature. After photopolymerization was complete, the cell/hydrogel disks were removed from the syringes and placed in 24-well tissue culture plates (Greiner Bio-One, Monroe, N.C.) with growth media. The constructs were cultured up to 3 weeks at 37° C. and 5% CO2 with media changes occurring every three days.
(§3) Encapsulated hMSC viability, BIO treatment, and assessment of gene expression was performed as described in Section 2.3 with exception of cell lysate collection. For assessment of gene expression hMSC-PEG constructs were homogenized in lysis buffer and centrifuged to pellet polymerized PEG. The supernatant was then collected for analysis.

PEG-encapsulated hMSCs [3] = experiment: LIVE/DEAD confocal imaging of PEG-encapsulated BIO-treated hMSC cultures; conditions: no detectable dead cells
Source text: as §2, §3

[4] = 5 μM BIO, adipogenic-differentiated hMSCs
[5] = 5 μM BIO, osteogenic differentiated hMSCs

O=C1Nc2cc(Br)ccc2/C1=C1/Nc2ccccc2/C1=N\O [BIO, 6-bromoindirubin-3′-oxime]
histological analysis of differentiation (von Kossa, toluidine blue, oil red o), BIO-treated versus untreated (hMSCs; 5 μM BIO 24 hrs, 21 days proliferation, 3 weeks differentiation media): uniform mineralization
PPARγ expression over undifferentiated controls (hMSCs; [4]): 31.2 fold
increase in PPARγ expression compared to differentiated non-BIO-treated (0 μM) controls (hMSCs; [4]): 5.0 fold
Sox9 expression compared with undifferentiated controls (hMSCs; 5 μM BIO, chondrogenic-differentiated hMSCs, not statistically significant): 0.6 fold
Cbfa1 expression over undifferentiated controls (hMSCs; [5]): 3.9 fold
increase in Cbfa1 expression compared to differentiated non-BIO-treated (0 μM) controls (hMSCs; [5]): 2.1 fold
3D proliferation relative to untreated control (PEG-encapsulated hMSCs [1]; 5 uM BIO): 120%
increase in proliferation (normalized DNA concentration) versus 0 μM (PEG-encapsulated hMSCs [1]; 5 μM BIO, at both days 12 and 18, PEG hydrogels): 20%
time at which Sox2, Nanog, and Oct4 expression returned to basal levels ([2]; PEG hydrogel-encapsulated hMSCs): ~18 days
Nanog gene expression relative to untreated controls ([2]; day 1, PEG-encapsulated): 2.4 fold
Oct4 gene expression relative to untreated controls ([2]; day 1, PEG-encapsulated): 3.5 fold
Sox2 gene expression relative to untreated controls ([2]; day 1, PEG-encapsulated): 2.2 fold
Nanog gene expression relative to untreated controls ([2]; day 12, PEG-encapsulated): 2.7 fold
Oct4 gene expression relative to untreated controls ([2]; day 12, PEG-encapsulated): 4.3 fold
Sox2 gene expression relative to untreated controls ([2]; day 12, PEG-encapsulated): 4.1 fold
live cells (LIVE/DEAD imaging) (PEG-encapsulated hMSCs [3]): ~100%
